Measured values: PubChem BioAssay AID2060493 (Molecular Pharmacology Branch, DTP, NCI, 2025)

Test system: 616215-338-R-J1-PDC tumor spheroids, viability
Assay: Anticancer human tumor 616215-338-R-J1-PDC patient-derived colon adenocarcinoma cell line growth inhibition [GQUAD]
Conditions: spheroids with HUVEC and MSC; for IC50: curve of first compound; for viability, T/C: stronger effect = lower value
Outline: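 Multi-cell-type spheroids of tumor cells with HUVEC and mesenchymal stem cells, treated with drug combinations. Concentrations descend in half-log steps from near clinical Cmax, or from 10 microM where Cmax is unknown; viability read-out.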

[1] = second compound 0.0316 µM, first compound 0.0316 µM
[2] = second compound 0.0316 µM, first compound 0.1 µM
[3] = second compound 0.0316 µM, first compound 0.316 µM
[4] = second compound 0.0316 µM, first compound 1 µM
[5] = second compound 0.0316 µM, first compound 3.16 µM
[6] = second compound 0.0316 µM, first compound 10 µM
[7] = second compound 0.1 µM, first compound 0.0316 µM
[8] = second compound 0.1 µM, first compound 0.1 µM
[9] = second compound 0.1 µM, first compound 0.316 µM
[10] = second compound 0.1 µM, first compound 1 µM
[11] = second compound 0.1 µM, first compound 3.16 µM
[12] = second compound 0.1 µM, first compound 10 µM
[13] = second compound 0.316 µM, first compound 0.0316 µM
[14] = second compound 0.316 µM, first compound 0.1 µM
[15] = second compound 0.316 µM, first compound 0.316 µM
[16] = second compound 0.316 µM, first compound 1 µM
[17] = second compound 0.316 µM, first compound 3.16 µM
[18] = second compound 0.316 µM, first compound 10 µM
[19] = second compound 1 µM, first compound 0.0316 µM
[20] = second compound 1 µM, first compound 0.1 µM
[21] = second compound 1 µM, first compound 0.316 µM
[22] = second compound 1 µM, first compound 1 µM
[23] = second compound 1 µM, first compound 3.16 µM
[24] = second compound 1 µM, first compound 10 µM
[25] = second compound 3.16 µM, first compound 0.0316 µM
[26] = second compound 3.16 µM, first compound 0.1 µM
[27] = second compound 3.16 µM, first compound 0.316 µM
[28] = second compound 3.16 µM, first compound 1 µM
[29] = second compound 3.16 µM, first compound 3.16 µM
[30] = second compound 3.16 µM, first compound 10 µM
[31] = second compound 10 µM, first compound 0.0316 µM
[32] = second compound 10 µM, first compound 0.1 µM
[33] = second compound 10 µM, first compound 0.316 µM
[34] = second compound 10 µM, first compound 1 µM
[35] = second compound 10 µM, first compound 3.16 µM
[36] = second compound 10 µM, first compound 10 µM
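Also: spheroids exposed to agents for 7 days before readout.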
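For viability, T/C in this document: percent viability relative to DMSO vehicle control wells taken as 100%.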

For `COc1ncnc(C2CC2)c1-c1ncc2cnn(Cc3ccc(-c4nc(C(F)(F)F)cn4C(C)C)cc3)c2n1` + CN(C)c1ccc(Nc2c3ccc(NC(=O)CCN4CCCC4)cc3nc3cc(NC(=O)CCN4CCCC4)ccc23)cc1, the IC50 (second compound 0.0316 µM) was > 10000 nM, the IC50 (second compound 0.1 µM) was > 10000 nM and the IC50 (second compound 0.316 µM) was > 10000 nM. For the same compound, the IC50 (second compound 1 µM) was > 10000 nM, the IC50 (second compound 3.16 µM) was > 10000 nM and the IC50 (second compound 10 µM) was 9350 nM. It also gave a viability, T/C [1] of 114%, a viability, T/C [2] of 101% and a viability, T/C [3] of 105%. For the same compound, the viability, T/C [4] was 96.3%, the viability, T/C [5] was 109% and the viability, T/C [6] was 97.5%. It also gave a viability, T/C [7] of 102%, a viability, T/C [8] of 96.1% and a viability, T/C [9] of 100%. The viability, T/C [10] was 101%, the viability, T/C [11] was 114% and the viability, T/C [12] was 90.2%. It also gave a viability, T/C [13] of 106%, a viability, T/C [14] of 95.3% and a viability, T/C [15] of 96.9%. For the same compound, the viability, T/C [16] was 104%, the viability, T/C [17] was 101% and the viability, T/C [18] was 93.7%. The viability, T/C [19] was 101%, the viability, T/C [20] was 114% and the viability, T/C [21] was 105%. For the same compound, the viability, T/C [22] was 101%, the viability, T/C [23] was 101% and the viability, T/C [24] was 92.1%. For the same compound, the viability, T/C [25] was 96.4%, the viability, T/C [26] was 91.2% and the viability, T/C [27] was 91.4%. For the same compound, the viability, T/C [28] was 105%, the viability, T/C [29] was 93.2% and the viability, T/C [30] was 97.7%. It also gave a viability, T/C [31] of 91.7%, a viability, T/C [32] of 85.3% and a viability, T/C [33] of 97.3%. The viability, T/C [34] was 90.3%, the viability, T/C [35] was 86.2% and the viability, T/C [36] was 47.8%.

Work on `Cc1[nH]c2ccccc2c1CCNCc1ccc(/C=C/C(=O)NO)cc1` + CN(C)c1ccc(Nc2c3ccc(NC(=O)CCN4CCCC4)cc3nc3cc(NC(=O)CCN4CCCC4)ccc23)cc1 yielded an IC50 (second compound 0.0316 µM) of 174 nM, an IC50 (second compound 0.1 µM) of 132 nM and an IC50 (second compound 0.316 µM) of 134 nM. It also gave an IC50 (second compound 1 µM) of 118 nM, an IC50 (second compound 3.16 µM) of 90.8 nM and an IC50 (second compound 10 µM) of 66.1 nM. The viability, T/C (second compound 0.0316 µM, first compound 0.000999 µM) was 104%, the viability, T/C (second compound 0.0316 µM, first compound 0.00316 µM) was 102% and the viability, T/C (second compound 0.0316 µM, first compound 0.00999 µM) was 104%. The viability, T/C [1] was 107%, the viability, T/C (second compound 0.0316 µM, first compound 0.0999 µM) was 83.1% and the viability, T/C [3] was 14.2%. The viability, T/C (second compound 0.1 µM, first compound 0.000999 µM) was 93.1%, the viability, T/C (second compound 0.1 µM, first compound 0.00316 µM) was 99.5% and the viability, T/C (second compound 0.1 µM, first compound 0.00999 µM) was 104%. It also gave a viability, T/C [7] of 88.8%, a viability, T/C (second compound 0.1 µM, first compound 0.0999 µM) of 61.2% and a viability, T/C [9] of 15.8%. It also gave a viability, T/C (second compound 0.316 µM, first compound 0.000999 µM) of 101%, a viability, T/C (second compound 0.316 µM, first compound 0.00316 µM) of 103% and a viability, T/C (second compound 0.316 µM, first compound 0.00999 µM) of 113%. It also gave a viability, T/C [13] of 104%, a viability, T/C (second compound 0.316 µM, first compound 0.0999 µM) of 62.7% and a viability, T/C [15] of 12.3%. It also gave a viability, T/C (second compound 1 µM, first compound 0.000999 µM) of 113%, a viability, T/C (second compound 1 µM, first compound 0.00316 µM) of 93.8% and a viability, T/C (second compound 1 µM, first compound 0.00999 µM) of 105%. The viability, T/C [19] was 86%, the viability, T/C (second compound 1 µM, first compound 0.0999 µM) was 57% and the viability, T/C [21] was 7.13%. For the same compound, the viability, T/C (second compound 3.16 µM, first compound 0.000999 µM) was 102%, the viability, T/C (second compound 3.16 µM, first compound 0.00316 µM) was 96.8% and the viability, T/C (second compound 3.16 µM, first compound 0.00999 µM) was 87.8%. For the same compound, the viability, T/C [25] was 92%, the viability, T/C (second compound 3.16 µM, first compound 0.0999 µM) was 46.2% and the viability, T/C [27] was 12.2%. It also gave a viability, T/C (second compound 10 µM, first compound 0.000999 µM) of 92.9%, a viability, T/C (second compound 10 µM, first compound 0.00316 µM) of 93% and a viability, T/C (second compound 10 µM, first compound 0.00999 µM) of 77.7%. It also gave a viability, T/C [31] of 70.3%, a viability, T/C (second compound 10 µM, first compound 0.0999 µM) of 39.3% and a viability, T/C [33] of 0.37%.

Work on `O=C(NO)c1cnc(N2CCN(S(=O)(=O)c3ccc4ccccc4c3)CC2)nc1` + CN(C)c1ccc(Nc2c3ccc(NC(=O)CCN4CCCC4)cc3nc3cc(NC(=O)CCN4CCCC4)ccc23)cc1 yielded an IC50 (second compound 0.0316 µM) of 324 nM, an IC50 (second compound 0.1 µM) of 322 nM and an IC50 (second compound 0.316 µM) of 255 nM. For the same compound, the IC50 (second compound 1 µM) was 312 nM, the IC50 (second compound 3.16 µM) was 293 nM and the IC50 (second compound 10 µM) was 220 nM. For the same compound, the viability, T/C [1] was 104%, the viability, T/C [2] was 97.5% and the viability, T/C [3] was 51.4%. For the same compound, the viability, T/C [4] was 1.08%, the viability, T/C [5] was 0.1% and the viability, T/C [6] was 0.1%. The viability, T/C [7] was 105%, the viability, T/C [8] was 107% and the viability, T/C [9] was 50.8%. It also gave a viability, T/C [10] of 0.65%, a viability, T/C [11] of 0.04% and a viability, T/C [12] of 0.07%. For the same compound, the viability, T/C [13] was 99.6%, the viability, T/C [14] was 103% and the viability, T/C [15] was 38.2%. For the same compound, the viability, T/C [16] was 0.54%, the viability, T/C [17] was 0.02% and the viability, T/C [18] was 0.06%. The viability, T/C [19] was 96.5%, the viability, T/C [20] was 98.1% and the viability, T/C [21] was 49.5%. For the same compound, the viability, T/C [22] was 0.3%, the viability, T/C [23] was 0.03% and the viability, T/C [24] was 0.07%. The viability, T/C [25] was 89.9%, the viability, T/C [26] was 93.7% and the viability, T/C [27] was 47%. The viability, T/C [28] was 0.25%, the viability, T/C [29] was 0.07% and the viability, T/C [30] was 0.1%. The viability, T/C [31] was 101%, the viability, T/C [32] was 80.5% and the viability, T/C [33] was 37.7%. It also gave a viability, T/C [34] of 0.24%, a viability, T/C [35] of 0.16% and a viability, T/C [36] of 0.17%.
